{"source": "patent US20140235542A1", "about": "“MODULAR, BIOACTIVE PEPTIDES FOR BINDING NATIVE BONE AND IMPROVING BONE GRAFT OSTEOINDUCTIVITY” (WISCONSIN ALUMNI RESEARCH FOUNDATION, priority 2013, published 2014)", "key": {"hMSCs [1]": {"tested_on": "hMSCs", "experiment": "Alkaline phosphatase (ALP) activity in hMSCs", "type": "cell-based, human", "settings": "peptide bound to HA-coated film, vs untreated substrates", "protocol": "hMSCs (Cambrex, Walkersville, Md., passages 5-6) were cultured in mesenchymal stem cell growth medium (MSCGM: Cambrex) consisting of MSC Basal Medium supplemented with 10% fetal bovine serum, L-glutamine, 100 units/ml penicillin, and 0.1 mg/ml streptomycin and grown using culture methods described elsewhere. […] The effects of soluble peptides included in culture medium were evaluated by adding 50 μg of eBGu3 or eBGa3 peptides to hMSC cultures on TCP in 500 μl of medium with or without osteogenic culture supplements. […]\nThe biological activity of modular peptides was initially assayed by their ability to enhance ALP activity in hMSCs. […] ALP activity was measured at 405 nm, and calculated as the ratio of p-nitrophenol released to total DNA concentration (nmol/min/ng DNA). To determine the amount of total DNA in each well, the cell nuclei were disrupted by addition of the aforementioned lysis buffer followed by centrifugation, and quantified using the CyQUANT Assay Kit (Molecular Probes, Eugene, Oreg.)."}, "hMSCs [2]": {"tested_on": "hMSCs", "experiment": "Mineralized tissue formation by hMSCs (Alizarin Red-S staining)", "type": "cell-based, human", "settings": "peptide bound to HA-coated film, vs untreated substrates", "protocol": "hMSCs (Cambrex, Walkersville, Md., passages 5-6) were cultured in mesenchymal stem cell growth medium (MSCGM: Cambrex) consisting of MSC Basal Medium supplemented with 10% fetal bovine serum, L-glutamine, 100 units/ml penicillin, and 0.1 mg/ml streptomycin and grown using culture methods described elsewhere. 2.5×10^4 hMSCs were seeded onto either tissue culture-treated polystyrene (TCP) or four different types of experimental substrates (1 cm^2) (PLG, HA-coated PLG, eBGu3-treated HA coating, or eBGa3-treated HA coating). hMSCs were allowed to attach to each substrate overnight, then cultured in MSCGM with osteogenic culture supplements (OS) (0.1 μM dexamethasone, 50 μg/ml ascorbic acid, and 10 mM β-glycerophosphate) for 24 days. The effects of soluble peptides included in culture medium were evaluated by adding 50 μg of eBGu3 or eBGa3 peptides to hMSC cultures on TCP in 500 μl of medium with or without osteogenic culture supplements. […]\nCharacterization of mineralized tissue growth was performed via Alizarin Red-S (ARS) staining at day 20. […] For quantification of staining, 400 μl 10% (v/v) acetic acid was added to each well for 30 minutes with shaking. […] Aliquots (100 μl) of the supernatant were read in triplicate at 405 nm in 96-well plate reader."}}, "note": "Square brackets hold non-standard residues; d marks the D form. Ends that are not written are not given here. Gla = N[C@@H](CC(C(=O)O)C(=O)O)C(=O)O", "data": [{"substance": "KIPKASSVPTELSAISTLYLAAAAγEPRRγEVAγEL (KIPKASSVPTELSAISTLYLAAAA[Gla]PRR[Gla]VA[Gla]L-NH2; N-terminus assumed; SMILES CC[C@H](C)[C@H](NC(=O)[C@H](C)NC(=O)[C@H](CO)NC(=O)[C@H](CC(C)C)NC(=O)[C@H](CCC(=O)O)NC(=O)[C@@H](NC(=O)[C@@H]1CCCN1C(=O)[C@@H](NC(=O)[C@H](CO)NC(=O)[C@H](CO)NC(=O)[C@H](C)NC(=O)[C@H](CCCCN)NC(=O)[C@@H]1CCCN1C(=O)[C@@H](NC(=O)[C@@H](N)CCCCN)[C@@H](C)CC)C(C)C)[C@@H](C)O)C(=O)N[C@@H](CO)C(=O)N[C@H](C(=O)N[C@@H](CC(C)C)C(=O)N[C@@H](Cc1ccc(O)cc1)C(=O)N[C@@H](CC(C)C)C(=O)N[C@@H](C)C(=O)N[C@@H](C)C(=O)N[C@@H](C)C(=O)N[C@@H](C)C(=O)N[C@@H](CC(C(=O)O)C(=O)O)C(=O)N1CCC[C@H]1C(=O)N[C@@H](CCCNC(=N)N)C(=O)N[C@@H](CCCNC(=N)N)C(=O)N[C@@H](CC(C(=O)O)C(=O)O)C(=O)N[C@H](C(=O)N[C@@H](C)C(=O)N[C@@H](CC(C(=O)O)C(=O)O)C(=O)N[C@@H](CC(C)C)C(N)=O)C(C)C)[C@@H](C)O) [eBGa3]", "values": [{"measurement": "effect of immobilized peptide on ALP activity", "setting": "hMSCs [1]", "value": "significantly enhanced"}, {"measurement": "effect of immobilized peptide on mineralized tissue formation", "setting": "hMSCs [2]", "value": "significantly enhanced"}]}]}
